Values quoted from earlier work, collected in patent EP0268927A2, “Resin-coated, non-sorptive granular, pesticidal compositions and method for the preparation thereof” (priority 1986, dated 1988).

System: rats
Conditions: technical grade

CCOP(=S)(OCC)SCSCC [phorate, 0,0-diethyl-S-(ethylthiomethyl)phosphorodithioate]
acute oral LD50 value in rats: 1.6-3.7 mg technical/kg
